Source: ChEMBL document CHEMBL1201862, “PubChem BioAssay data set” (2004)
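Tested at 5 concentrations; 48 h exposure; 96-well plates; endpoints linearly interpolated, else capped at highest concentration. Here, GI50 denotes the concentration required for 50% inhibition of growth.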 Active and inactive are the calls of the source. No stated cut-off is given here; in the data, active = GI50 up to about 1.1 µM and inactive = higher.

Key:
Test in all cases: NCI tumour cell line growth inhibition, 48 h
[1] = system: CCRF-CEM
[2] = system: U-251
[3] = system: SNB-19
[4] = system: OVCAR-8
[5] = system: TK-10
[6] = system: LOX IMVI
[7] = system: HOP-62
[8] = system: HCT-15
[9] = system: RXF 393
[10] = system: SK-MEL-2
[11] = system: SF-268
[12] = system: NCI-H460
[13] = system: KM12
[14] = system: Malme-3M
[15] = system: UACC-257
[16] = system: IGROV-1
[17] = system: SK-OV-3
[18] = system: UO-31
[19] = system: HL-60
[20] = system: EKVX

SMILES | GI50 [1] | GI50 [2] | GI50 [3] | GI50 [4] | GI50 [5] | GI50 [6] | GI50 [7] | GI50 [8] [µM] | GI50 [9] | GI50 [10] | GI50 [11] | GI50 [12] | GI50 [13] | GI50 [14] | GI50 [15] | GI50 [16] | GI50 [17] | GI50 [18] | GI50 [19] | GI50 [20]
OC12c3ccccc3C1CCCCCC21OCCCO1 (stereo unspecified) | > 100 µM (inactive) | > 100 µM (inactive) | > 100 µM (inactive) | > 100 µM (inactive) | > 100 µM (inactive) | > 100 µM (inactive) | > 100 µM (inactive) | > 100 | > 100 µM (inactive) | > 100 µM (inactive) | > 100 µM (inactive) | > 100 µM (inactive) | > 100 µM (inactive) | > 100 µM (inactive) | > 100 µM (inactive) | > 100 µM (inactive) | > 100 µM (inactive) | > 100 µM (inactive) | 11.4 µM (inactive) | –
CCN(CC)Cc1ccc2cccnc2c1O | 0.713 µM (active) | 4.47 µM (inactive) | 18.5 µM (inactive) | 2.03 µM (inactive) | 9.64 µM (inactive) | 3.84 µM (inactive) | 4.5 µM (inactive) | 0.365 | 93.1 µM (inactive) | 20.1 µM (inactive) | 22.6 µM (inactive) | 3.82 µM (inactive) | – | 2.81 µM (inactive) | 4.91 µM (inactive) | 2.77 µM (inactive) | 7.01 µM (inactive) | 1.88 µM (inactive) | 0.43 µM (active) | 2.24 µM (inactive)
O=C(NC1C2CC3CC(C2)CC1C3)c1cc(/C=C/c2ccccc2)nc(S)n1 (stereo unspecified) | > 100 µM (inactive) | > 100 µM (inactive) | > 100 µM (inactive) | > 100 µM (inactive) | > 100 µM (inactive) | > 100 µM (inactive) | > 100 µM (inactive) | – | > 100 µM (inactive) | > 100 µM (inactive) | > 100 µM (inactive) | > 100 µM (inactive) | > 100 µM (inactive) | > 100 µM (inactive) | > 100 µM (inactive) | > 100 µM (inactive) | > 100 µM (inactive) | > 100 µM (inactive) | > 100 µM (inactive) | > 100 µM (inactive)
CCN(CC)CCN(C(=O)c1ccc(F)cc1)c1ccccc1N | > 10 µM (inactive) | > 10 µM (inactive) | > 10 µM (inactive) | > 10 µM (inactive) | > 10 µM (inactive) | > 10 µM (inactive) | > 10 µM (inactive) | > 10 | > 10 µM (inactive) | > 10 µM (inactive) | > 10 µM (inactive) | > 10 µM (inactive) | > 10 µM (inactive) | > 10 µM (inactive) | – | > 10 µM (inactive) | > 10 µM (inactive) | > 10 µM (inactive) | > 10 µM (inactive) | > 10 µM (inactive)
COc1ccc(OC)c2c3c(ccc12)C(c1ccccc1)OC3=O (stereo unspecified) | 64 µM (inactive) | 60.3 µM (inactive) | > 100 µM (inactive) | 39.4 µM (inactive) | 60.4 µM (inactive) | 56.5 µM (inactive) | 73.5 µM (inactive) | 61 | 39.9 µM (inactive) | 55 µM (inactive) | > 100 µM (inactive) | 47.2 µM (inactive) | 56.5 µM (inactive) | 59 µM (inactive) | 37.7 µM (inactive) | > 100 µM (inactive) | > 100 µM (inactive) | 36.8 µM (inactive) | 33.7 µM (inactive) | > 100 µM (inactive)
O=C(O)C(C(=O)O)P(=S)(S)c1ccccc1 (stereo unspecified) | > 100 µM (inactive) | > 100 µM (inactive) | > 100 µM (inactive) | > 100 µM (inactive) | > 100 µM (inactive) | > 100 µM (inactive) | > 100 µM (inactive) | > 100 | > 100 µM (inactive) | > 100 µM (inactive) | > 100 µM (inactive) | > 100 µM (inactive) | > 100 µM (inactive) | > 100 µM (inactive) | > 100 µM (inactive) | > 100 µM (inactive) | > 100 µM (inactive) | > 100 µM (inactive) | > 100 µM (inactive) | > 100 µM (inactive)
